Consider 13 compounds from patent US12365687B2 (Hoffmann-La Roche Inc., priority 2021, dated 2025).

Assay [1] deals with α2β2γ1 GABAA receptor subtype (Homo sapiens (Human), UniProt P47869+Q8N1C3). The assay is described as follows: Two-electrode voltage clamp electrophysiology in Xenopus oocytes expressing GABAA receptors (modulation of GABA EC20 current). The format is cell-based. The note with it: for Efficacy (GABA)%: % modulation of GABA EC20 = 100*(Fold increase-1), α2β2γ1 oocytes, compound at approx. 30-fold Ki; for Fold increase h-GABA-A α2β2γ1 oocyte @ 30-fold Ki: Xenopus oocytes expressing α2β2γ1, compound at approx. 30-fold its Ki α2β2γ1, GABA EC20 current; for potentiation of the GABA-induced current: α2β2γ1 GABAA receptor subtype expressing oocytes, GABA EC20. How it is done:
Xenopus laevis oocytes at maturation stages V-VI were used for the expression of cloned mRNA encoding GABAA receptor subunits. Oocytes ready for RNA micro-injection were bought from Ecocyte, Castrop-Rauxel, Germany and stored in modified Barth's medium (composition in mM: NaCl 88, KCl 1, NaHCO3 2.4, HEPES 10, MgSO4 0.82, CaNO3 0.33, CaCl2 0.33, pH=7.5) at 20° C. until the experiment.
Oocytes were plated in 96-well plates for microinjection using the Roboinject automated instrument (MultiChannelSystems, Reutlingen, Germany). Approximately 50 nL of an aqueous solution containing the RNA transcripts for the subunits of the desired GABAA receptor subtype was injected into each oocyte. […] Oocytes were kept in modified Barth's medium (composition in mM: NaCl 88, KCl 1, NaHCO3 […], HEPES 10, MgSO4 0.82, CaNO3 0.33, CaCl2 0.33, pH=7.5) at 20° C. until the experiment.
Electrophysiological experiments were performed using the Roboocyte instrument (MultiChannelSystems, Reutlingen, Germany) on days 3 to 5 after the micro-injection of mRNA. During the experiment the oocytes were constantly superfused by a solution containing (in mM) NaCl 90, KCl 1, HEPES 5, MgCl2 1, CaCl2 1 (pH 7.4). Oocytes were impaled by two glass microelectrodes (resistance: 0.5-0.8 MΩ) which were filled with a solution containing KCl 1M+K-acetate 1.5 M and voltage-clamped to −80 mV. The recordings were performed at room temperature using the Roboocyte two-electrode voltage clamp system (Multichannelsystem). After an initial equilibration period of 1.5 min GABA was added for 1.5 min at a concentration evoking approximately 20% of a maximal current response (EC20). After another rest interval of 2.5 min GABA was again added evoking a response of similar amplitude and shape. […] Current traces were recorded at a digitization rate of 10 Hz during and shortly before and after the GABA application.
Each compound and concentration was tested on at least 3 oocytes. Different oocytes were used for different compound concentrations.
For the analysis, the digitized current traces of the first and second GABA response were superimposed and, if necessary, rescaled to equal maximal amplitudes. The ratio between the two responses during the time interval of test compound application was calculated point by point. The extremum of the resulting “ratio trace” was taken as the efficacy (“Fold increase”) of the compound expressed as “% modulation of GABA EC20” (100*(Fold increase-1)).
In general terms: Two-electrode voltage clamp holds a large cell at a set potential and records current.

Assay [2] addresses human GABAA α5β2γ1 receptor (Homo sapiens (Human), UniProt P31644+Q8N1C3). The assay is described as follows: Radioligand binding assay for γ1-containing GABAA subtypes, [3H]RO7239181 competition (α5β2γ1). As for the experimental part:
(§1) The affinity of compounds at GABAA γ1 subunit-containing receptors was measured by competition for [^3H]RO7239181 (67.3 Ci/mmol; Roche) binding to membranes from HEK293F cells (ThermoFisher R79007) expressing human (transiently transfected) receptors of composition α5β2γ1, α2β2γ1, α1β2γ1.
(§2) Harvested pellets from HEK293F cells expressing the different GABAA receptor subtypes were resuspended in Mannitol Buffer pH 7.2-7.4 (Mannitol 0.29 M, Triethylamine 10 mM, Acetic acid 10 mM, EDTA 1 mM plus protease inhibitors (20 tablets Complete, Roche Diagnostics Cat. No. 05 056 489 001 per liter)), washed two times and then resuspended at 1:10 to 1:15 dilution in the same buffer. Cell disruption was performed by stirring the suspension in a Parr vessel #4637 at 435 psi for 15 minutes, and then the suspensions were centrifuged at 1000×g for 15 minutes at 4° C. (Beckman Avanti J-HC; rotor JS-4.2). The supernatant (S1) was transferred in a 2 l Schott flask and the pellet (P1) was resuspended with Mannitol Buffer up to 175 ml. The resuspended pellet was transferred into a 250 ml Corning centrifugal beaker and centrifuged at 1500×g for 10 minutes at 4° C. (Beckman Avanti J-HC; rotor JS-4.2). The supernatant (S1) was then transferred in the 2 l Schott flask and the pellet was discarded. The supernatants (S1) were centrifuged in 500 ml Beckman polypropylene centrifugal beaker at 15′000×g for 30 minutes at 4° C. (Beckman Avanti J-20 XP; rotor JLA-10.500). The pellet (P2) was resuspended with Mannitol Buffer 1:1 and frozen at −80° C. The supernatant (S2) was centrifuged in 100 ml Beckman polypropylene centrifugal tubes at 48000×g for 50 minutes at 4° C. (Beckman Avanti J-20 XP; rotor JA-18). The supernatant (S3) was discarded and the pellet (P3) was resuspended with 1:1 Mannitol Buffer. The P2 and P3 protein concentration was determined with the BIORAD Standard assay method with bovine serum albumin as standard and measured on the NANO-Drop 1000. The membrane suspension was aliquots (500 μl per tube) and stored at −80° C. until required.
(§3) Membrane homogenates were resuspended and polytronised (Polytron PT1200E Kinematica AG) in Potassium Phosphate 10 mM, KCl 100 mM binding buffer at pH 7.4 to a final assay concentration determined with a previous experiment.
(§4) Assays were incubated to equilibrium for 1 hour at 4° C. and then, membranes were filtered onto unifilter (96-well white microplate with bonded GF/C filters preincubated 20-50 minutes in 0.3% Polyethylenimine) with a Filtermate 196 harvester (Packard BioScience) and washed 4 times with cold Potassium Phosphate 10 mM pH 7.4, KCl 100 mM binding buffer. After anhydrousing, filter-retained radioactivity was detected by liquid scintillation counting. Ki values were calculated using Excel-Fit (Microsoft) and are the means of two determinations.

Assay [3] has as its target human GABAA α1β3γ2 receptor (Homo sapiens (Human), UniProt P14867+P18507). The assay is described as follows: Radioligand binding assay for γ2-containing GABAA subtypes, [3H]Flumazenil competition (α1β3γ2). Conditions: for γ2/γ1 Selectivity Ratio: Ki α1β3γ2 (nM)/Ki α2β2γ1 (nM); for LogSel: Log[Ki α1β3γ2 (nM)/Ki α2β2γ1 (nM)]. As for the experimental part:
The affinity of compounds at GABAA γ2 subunit-containing receptors was measured by competition for [^3H]Flumazenil (81.1 Ci/mmol; Roche) binding to HEK293F cells expressing human (transiently transfected) receptors of composition α1β3γ2.
Harvested pellets from HEK293F cells expressing the different GABAA γ2 receptor subtypes were resuspended in Mannitol Buffer pH 7.2-7.4 and processed as described above for the cells expressing the GABAA γ1 subunit-containing receptors.
Assays were incubated to equilibrium for 1 hour at 4° C. and harvested onto GF/C uni-filters (Packard) by filtration using a Packard harvester and washing with ice-cold wash buffer (50 mM Tris; pH 7.5). After anhydrousing, filter-retained radioactivity was detected by liquid scintillation counting. Ki values were calculated using Excel-Fit (Microsoft) and are the means of two determinations.

The target in assay [4] is human GABAA α2β2γ1 receptor (Homo sapiens (Human), UniProt P47869+Q8N1C3). The experiment in a line: Radioligand binding assay for γ1-containing GABAA subtypes, [3H]RO7239181 competition (α2β2γ1). As for the experimental part:
as §1, §2, §3, §4

[5] abbreviates: Ki h-GABAA α2β2γ1, [3H]RO7239181 competition binding, human GABAA α2β2γ1.
The mark [6] stands for this setting: Ki h-GABAA α2β2γ1, displacement of [3H]RO7239181, membranes of HEK293F cells expressing human receptors, means of two determinations.
Where [7] appears, read: Ki h-GABAA α2β2γ1, Table 3, reference compounds.

For the compound `C[C@@H]1N=C(c2c(F)cccc2F)c2c(ccc(C(F)(F)F)c2Cl)-n2nc(NC(=O)N3C4COCC3C4)nc21` (single isomer, unassigned) [Example 130], in assay [1], the “Efficacy (GABA)%” value is on record as 116% and the “Fold increase h-GABA-A α2β2γ1 oocyte @ 30-fold Ki” value is on record as 2.16. Further, the affinity in assay [2] corresponds to a Ki of 6.9 nM. In assay [3], the Ki (usually a dissociation constant, usually derived from enzyme kinetics or from competition with a known ligand) came out at 4190 nM; the “γ2/γ1 Selectivity Ratio” value stood at 114.5; the LogSel is reported as 2.06. Moreover, affinity in assay [4] (setting [5]) was put at a Ki of 36.6 nM. The same compound showed a Ki in assay [4] (setting [6]) of 36.6 nM.
As for `C[C@@H]1N=C(c2c(F)cccc2F)c2c(ccc(C(F)(F)F)c2Cl)-n2nc(NC(=O)N3C4CC3CS(=O)(=O)C4)nc21` (single isomer, unassigned) [Example 134], in assay [1], the “Efficacy (GABA)%” value was 101% and the “Fold increase h-GABA-A α2β2γ1 oocyte @ 30-fold Ki” value amounted to 2.01. This compound also returned a Ki in assay [2] of 2.36 nM. Also, in assay [3], affinity was put at a Ki of 1480 nM, the “γ2/γ1 Selectivity Ratio” value is 76.7 and the LogSel was found to be 1.88. For the same compound, the Ki in assay [4] (setting [5]) is 19.3 nM. Further, the Ki in assay [4] (setting [6]) was 19.3 nM.
Consider `Cc1nnc2n1-c1ccc(Cl)cc1C(c1ccccc1)=NC2` [Alprazolam, reference compound], for which the LogSel in assay [3] (Table 3) is recorded as −2.3.
For the compound `COC1CN(C(=O)c2cn3c(n2)CN=C(c2c(F)cccc2F)c2c-3ccc(Cl)c2Cl)C1` [Example 2, (7,8-dichloro-6-(2,6-difluorophenyl)-4H-benzo[f]imidazo[1,2-a][1,4]diazepin-2-yl)(3-methoxyazetidin-1-yl)methanone], in assay [1], the “Efficacy (GABA)%” value is reported as 42% and the “Fold increase h-GABA-A α2β2γ1 oocyte @ 30-fold Ki” value is recorded as 1.42. In addition, in assay [2], the Ki turned out to be 1.26 nM. Besides, in assay [3], the affinity, expressed as Ki, was 255 nM; the “γ2/γ1 Selectivity Ratio” value amounted to 39.3; the LogSel turned out to be 1.59. The Ki in assay [4] (setting [5]) came out at 6.5 nM. Besides, the Ki in assay [4] (setting [6]) amounted to 6.5 nM.
Turning to `Fc1cccc(F)c1C1=NCc2nc(C(F)F)cn2-c2ccc(Br)c(Cl)c21` [Example 3, 8-bromo-7-chloro-2-(difluoromethyl)-6-(2,6-difluorophenyl)-4H-benzo[f]imidazo[1,2-a][1,4]diazepine], the Ki in assay [2] was found to be 1.28 nM; in assay [3] it was 455 nM; in assay [4] (setting [5]), 30.2 nM; in assay [4] (setting [6]), 30.2 nM. The “γ2/γ1 Selectivity Ratio” value in assay [3] is given as 15.0. In addition, in assay [3], the LogSel is recorded as 1.18.
With `OCc1cn2c(n1)CN=C(c1c(F)cccc1F)c1c-2ccc(Br)c1Cl` [Example 4, (8-bromo-7-chloro-6-(2,6-difluorophenyl)-4H-benzo[f]imidazo[1,2-a][1,4]diazepin-2-yl)methanol], in assay [1], the “Efficacy (GABA)%” value is 105% and the “Fold increase h-GABA-A α2β2γ1 oocyte @ 30-fold Ki” value is 2.05. The affinity in assay [2] corresponds to a Ki of 1.14 nM. Besides, in assay [3], the Ki came out at 216 nM, the “γ2/γ1 Selectivity Ratio” value is 24.4 and the LogSel is reported as 1.39. Besides, the affinity in assay [4] (setting [5]), expressed as Ki, was 8.8 nM. This compound also had a Ki in assay [4] (setting [6]) of 8.8 nM.
`C[C@@H]1N=C(c2c(F)cccc2F)c2c(ccc(C(F)(F)F)c2Cl)-n2nc(C(=O)N3CC(OC(F)F)C3)nc21` [Example 51, [3-(difluoromethoxy)azetidin-1-yl]-[(4S)-7-chloro-6-(2,6-difluorophenyl)-4-methyl-8-(trifluoromethyl)-4H-[1,2,4]triazolo[1,5-a][1,4]benzodiazepin-2-yl]methanone]: in assay [3], affinity was put at a Ki of 1560 nM, the “γ2/γ1 Selectivity Ratio” value amounted to 53.3 and the LogSel is given as 1.73.
As to `C[C@@H]1N=C(c2ncccc2F)c2c(ccc(C(F)(F)F)c2Cl)-n2nc(C(=O)NCCF)nc21` [Example 152, (4S)-7-chloro-N-(2-fluoroethyl)-6-(3-fluoro-2-pyridyl)-4-methyl-8-(trifluoromethyl)-4H-[1,2,4]triazolo[1,5-a][1,4]benzodiazepine-2-carboxamide], the Ki in assay [2] was 20.4 nM; in assay [3] it was > 30000 nM; in assay [4] (setting [5]), 89.9 nM; in assay [4] (setting [6]) it was 89.9 nM. The “γ2/γ1 Selectivity Ratio” value in assay [3] was 333.7. This compound showed a LogSel in assay [3] of 2.52.
On to `CN1C(=O)CN=C(c2ccccc2F)c2cc([N+](=O)[O-])ccc21` [Flunitrazepam, reference compound], for which the “potentiation of the GABA-induced current” value in assay [1] is reported as ~60%.
With `Cc1ncc2n1-c1ccc(Cl)cc1C(c1ccccc1F)=NC2` [Midazolam, reference compound], the “potentiation of the GABA-induced current” value in assay [1] is ~60%. Also, the LogSel in assay [3] (Table 3) was −2.2.
Consider `CN(C)C(=O)c1nc2n(n1)-c1ccc(Cl)cc1C(c1ccccc1F)=NC2` [RE-A, reference compound], for which the results for the Ki in assay [3] and in assay [4] (setting [7]) were 35.6 nM and 276 nM, respectively. The “γ2/γ1 Selectivity Ratio” value in assay [3] (Table 3) was determined as 0.13.
As for `CCOC(=O)c1nc2n(n1)-c1ccc(Cl)cc1C(c1ccccc1F)=NC2` [RE-B, reference compound], the Ki was determined as 3.4 nM in assay [3] and 18.4 nM in assay [4] (setting [7]). Besides, in assay [3] (Table 3), the “γ2/γ1 Selectivity Ratio” value came out at 0.18.
Consider `Cc1nnc2n1-c1ccc(Cl)cc1C(c1ccccc1Cl)=NC2` [Triazolam, reference compound], for which, in assay [1], the “potentiation of the GABA-induced current” value is ~60%. Besides, the LogSel in assay [3] (Table 3) was −1.5.
